From publication PMC11402040 (ESMO Open, 2024)

Experiments:
[1] = cited from earlier work; for LFT elevations in the clinic: dose levels evaluated in the clinic
[2] = tested on: CYP3A; experiment: phase I Part 1B PK, CYP3A-mediated drug–drug interaction with enzalutamide; assay type: in vivo, human; details: coadministered enzalutamide 160 mg q.d.

Compound	bleeding in clinical studies [1]	LFT elevations in the clinic [1]	other results
bintrafusp alfa: bifunctional fusion protein targeting TGF-β and PD-L1	Bleeding (including intratumoral bleeding) has been observed	–	–
Cc1cccc(-c2nn3c(c2-c2ccnc4ccc(C(N)=O)cc24)CCC3)n1 [galunisertib]	–	not demonstrated severe LFT elevations	–
CC(C)(O)c1cc(Nc2cc(Oc3cn(C4CC4)nc3C3CCOCC3)ccn2)ccn1 [LY3200882]	–	not demonstrated severe LFT elevations	–
fresolimumab: other TGF-β inhibitor in clinical studies	Bleeding (including intratumoral bleeding) has been observed	–	–
CNC(=O)c1ccc(N2C(=S)N(c3ccc(C#N)c(C(F)(F)F)c3)C(=O)C2(C)C)cc1F [enzalutamide]	–	–	CYP3A4 enzyme induction effect on PF-06952229 [2]: strong cytochrome P450 3A4 (CYP3A4) enzyme induction effect
